{"source": "patent US12077503B2", "about": "“Substituted cyclic amides and their use as herbicides” (FMC CORPORATION, priority 2015, dated 2024)", "assay_in_all_cases": "Test C preemergence", "type_in_all_cases": "in vivo", "conditions_in_all_cases": "scale 0 to 100, 0 no effect, 100 complete control", "key": {"[1]": {"test_system": "waterhemp (common waterhemp, Amaranthus rudis)", "source_text": "(§1) Seeds of plant species selected from blackgrass (Alopecurus myosuroides), ryegrass, Italian (Italian ryegrass, Lolium multiflorum), wheat (winter wheat, Triticum aestivum), Galium (catchweed bedstraw, Galium aparine), corn (Zea mays), crabgrass, large (large crabgrass, Digitaria sanguinalis), foxtail, giant (giant foxtail, Setaria faberii), johnsongrass (Sorghum halepense), lambsquarters (Chenopodium album), morningglory (Ipomoea coccinea), nutsedge, yellow (yellow nutsedge, Cyperus esculentus), pigweed (Amaranthus retroflexus), ragweed (common ragweed, Ambrosia elatior), soybean (Glycine max), barnyardgrass (Echinochloa crus-galli), oilseed rape (Brassica napus), waterhemp (common waterhemp, Amaranthus rudis) and velvetleaf (Abutilon theophrasti) were planted into a blend of loam soil and sand and treated preemergence with test chemicals formulated in a non-phytotoxic solvent mixture which included a surfactant.\n(§2) At the same time, plants selected from these crop and weed species and also Kochia (Kochia scoparia), oat, wild (wild oat, Avena fatua), and chickweed (common chickweed, Stellaria media) were planted in pots containing Sunshine Redi-Earth® planting medium comprising spaghnum peat moss, vermiculite, starter nutrients and dolomitic limestone and treated with postemergence applications of test chemicals formulated in the same manner. Plants ranged in height from 2 to 18 cm (1- to 4-leaf stage) for postemergence treatments. Treated plants and controls were maintained in a greenhouse for 13 to 15 d, after which time all species were compared to controls and visually evaluated. Plant response ratings, summarized in Table C, are based on a scale of 0 to 100 where 0 is no effect and 100 is complete control. A dash (-) response means no test result."}, "[2]": {"test_system": "barnyardgrass (Echinochloa crus-galli)", "source_text": "as §1, §2"}, "[3]": {"test_system": "oilseed rape (Brassica napus)", "source_text": "as §1, §2"}, "[4]": {"test_system": "wheat (winter wheat, Triticum aestivum)", "source_text": "as §1, §2"}, "[5]": {"test_system": "foxtail, giant (giant foxtail, Setaria faberii)", "source_text": "as §1, §2"}, "[6]": {"test_system": "lambsquarters (Chenopodium album)", "source_text": "as §1, §2"}, "[7]": {"test_system": "ragweed (common ragweed, Ambrosia elatior)", "source_text": "as §1, §2"}, "[8]": {"test_system": "crabgrass, large (large crabgrass, Digitaria sanguinalis)", "source_text": "as §1, §2"}, "[9]": {"test_system": "nutsedge, yellow (yellow nutsedge, Cyperus esculentus)", "source_text": "as §1, §2"}, "[10]": {"test_system": "ryegrass, Italian (Italian ryegrass, Lolium multiflorum)", "source_text": "as §1, §2"}, "corn (Zea mays)": {"test_system": "corn (Zea mays)", "source_text": "as §1, §2"}, "[11]": {"test_system": "velvetleaf (Abutilon theophrasti)", "source_text": "as §1, §2"}, "[12]": {"test_system": "johnsongrass (Sorghum halepense)", "source_text": "as §1, §2"}, "soybean (Glycine max)": {"test_system": "soybean (Glycine max)", "source_text": "as §1, §2"}, "[13]": {"test_system": "pigweed (Amaranthus retroflexus)", "source_text": "as §1, §2"}, "[14]": {"test_system": "morningglory (Ipomoea coccinea)", "source_text": "as §1, §2"}, "[15]": {"test_system": "blackgrass (Alopecurus myosuroides)", "source_text": "as §1, §2"}}, "data": [{"smiles": "CN1CC(c2cccc(OC(F)(F)C(F)F)c2)C(C(=O)Nc2cccc(F)c2F)C1=O", "note": "(stereo not drawn) [Compound 392]", "values": [{"measurement": "Plant response rating, Waterhemp", "setting": "[1]; 62 g ai/ha", "result": 85}, {"measurement": "Plant response rating, Waterhemp", "setting": "[1]; 125 g ai/ha", "result": 90}, {"measurement": "Plant response rating, Waterhemp", "setting": "[1]; 250 g ai/ha", "result": 90}, {"measurement": "Plant response rating, Barnyardgrass", "setting": "[2]; 31 g ai/ha", "result": 90}, {"measurement": "Plant response rating, Barnyardgrass", "setting": "[2]; 62 g ai/ha", "result": 90}, {"measurement": "Plant response rating, Barnyardgrass", "setting": "[2]; 125 g ai/ha", "result": 90}, {"measurement": "Plant response rating, Barnyardgrass", "setting": "[2]; 250 g ai/ha", "result": 95}, {"measurement": "Plant response rating, Oilseed Rape", "setting": "[3]; 31 g ai/ha", "result": 70}, {"measurement": "Plant response rating, Oilseed Rape", "setting": "[3]; 62 g ai/ha", "result": 80}, {"measurement": "Plant response rating, Oilseed Rape", "setting": "[3]; 125 g ai/ha", "result": 85}, {"measurement": "Plant response rating, Oilseed Rape", "setting": "[3]; 250 g ai/ha", "result": 90}, {"measurement": "Plant response rating, Wheat", "setting": "[4]; 62 g ai/ha", "result": 35}, {"measurement": "Plant response rating, Wheat", "setting": "[4]; 125 g ai/ha", "result": 80}, {"measurement": "Plant response rating, Wheat", "setting": "[4]; 250 g ai/ha", "result": 75}, {"measurement": "Plant response rating, Foxtail, Giant", "setting": "[5]; 31 g ai/ha", "result": 90}, {"measurement": "Plant response rating, Foxtail, Giant", "setting": "[5]; 62 g ai/ha", "result": 95}, {"measurement": "Plant response rating, Foxtail, Giant", "setting": "[5]; 125 g ai/ha", "result": 95}, {"measurement": "Plant response rating, Foxtail, Giant", "setting": "[5]; 250 g ai/ha", "result": 95}, {"measurement": "Plant response rating, Lambsquarters", "setting": "[6]; 31 g ai/ha", "result": 60}, {"measurement": "Plant response rating, Lambsquarters", "setting": "[6]; 62 g ai/ha", "result": 70}, {"measurement": "Plant response rating, Lambsquarters", "setting": "[6]; 125 g ai/ha", "result": 75}, {"measurement": "Plant response rating, Lambsquarters", "setting": "[6]; 250 g ai/ha", "result": 75}, {"measurement": "Plant response rating, Ragweed", "setting": "[7]; 31 g ai/ha", "result": 70}, {"measurement": "Plant response rating, Ragweed", "setting": "[7]; 62 g ai/ha", "result": 45}, {"measurement": "Plant response rating, Ragweed", "setting": "[7]; 125 g ai/ha", "result": 60}, {"measurement": "Plant response rating, Ragweed", "setting": "[7]; 250 g ai/ha", "result": 70}, {"measurement": "Plant response rating, Crabgrass, Large", "setting": "[8]; 31 g ai/ha", "result": 90}, {"measurement": "Plant response rating, Crabgrass, Large", "setting": "[8]; 62 g ai/ha", "result": 95}, {"measurement": "Plant response rating, Crabgrass, Large", "setting": "[8]; 125 g ai/ha", "result": 95}, {"measurement": "Plant response rating, Crabgrass, Large", "setting": "[8]; 250 g ai/ha", "result": 95}, {"measurement": "Plant response rating, Nutsedge, Yellow", "setting": "[9]; 31 g ai/ha", "result": 0}, {"measurement": "Plant response rating, Nutsedge, Yellow", "setting": "[9]; 62 g ai/ha", "result": 0}, {"measurement": "Plant response rating, Nutsedge, Yellow", "setting": "[9]; 125 g ai/ha", "result": 0}, {"measurement": "Plant response rating, Nutsedge, Yellow", "setting": "[9]; 250 g ai/ha", "result": 0}, {"measurement": "Plant response rating, Ryegrass, Italian", "setting": "[10]; 62 g ai/ha", "result": 40}, {"measurement": "Plant response rating, Ryegrass, Italian", "setting": "[10]; 125 g ai/ha", "result": 55}, {"measurement": "Plant response rating, Ryegrass, Italian", "setting": "[10]; 250 g ai/ha", "result": 90}, {"measurement": "Plant response rating, Corn", "setting": "corn (Zea mays); 31 g ai/ha", "result": 45}, {"measurement": "Plant response rating, Corn", "setting": "corn (Zea mays); 62 g ai/ha", "result": 65}, {"measurement": "Plant response rating, Corn", "setting": "corn (Zea mays); 125 g ai/ha", "result": 55}, {"measurement": "Plant response rating, Corn", "setting": "corn (Zea mays); 250 g ai/ha", "result": 75}, {"measurement": "Plant response rating, Velvetleaf", "setting": "[11]; 62 g ai/ha", "result": 40}, {"measurement": "Plant response rating, Velvetleaf", "setting": "[11]; 125 g ai/ha", "result": 60}, {"measurement": "Plant response rating, Velvetleaf", "setting": "[11]; 250 g ai/ha", "result": 70}, {"measurement": "Plant response rating, Johnsongrass", "setting": "[12]; 31 g ai/ha", "result": 70}, {"measurement": "Plant response rating, Johnsongrass", "setting": "[12]; 62 g ai/ha", "result": 85}, {"measurement": "Plant response rating, Johnsongrass", "setting": "[12]; 125 g ai/ha", "result": 85}, {"measurement": "Plant response rating, Johnsongrass", "setting": "[12]; 250 g ai/ha", "result": 90}, {"measurement": "Plant response rating, Soybean", "setting": "soybean (Glycine max); 62 g ai/ha", "result": 100}, {"measurement": "Plant response rating, Soybean", "setting": "soybean (Glycine max); 125 g ai/ha", "result": 15}, {"measurement": "Plant response rating, Soybean", "setting": "soybean (Glycine max); 250 g ai/ha", "result": 5}, {"measurement": "Plant response rating, Pigweed", "setting": "[13]; 31 g ai/ha", "result": 75}, {"measurement": "Plant response rating, Pigweed", "setting": "[13]; 62 g ai/ha", "result": 80}, {"measurement": "Plant response rating, Pigweed", "setting": "[13]; 125 g ai/ha", "result": 85}, {"measurement": "Plant response rating, Pigweed", "setting": "[13]; 250 g ai/ha", "result": 90}, {"measurement": "Plant response rating, Morningglory", "setting": "[14]; 31 g ai/ha", "result": 0}, {"measurement": "Plant response rating, Morningglory", "setting": "[14]; 62 g ai/ha", "result": 0}, {"measurement": "Plant response rating, Morningglory", "setting": "[14]; 125 g ai/ha", "result": 0}, {"measurement": "Plant response rating, Morningglory", "setting": "[14]; 250 g ai/ha", "result": 15}, {"measurement": "Plant response rating, Blackgrass", "setting": "[15]; 31 g ai/ha", "result": 20}, {"measurement": "Plant response rating, Blackgrass", "setting": "[15]; 62 g ai/ha", "result": 45}, {"measurement": "Plant response rating, Blackgrass", "setting": "[15]; 125 g ai/ha", "result": 70}, {"measurement": "Plant response rating, Blackgrass", "setting": "[15]; 250 g ai/ha", "result": 60}]}]}
